# Where two headings read alike, the source gives them in different places.
# Legend:
# [1] = physchem; conditions: water
# [2] = system: Sprague-Dawley rats; assay: Contextual fear conditioning in rats; type: in vivo, rat; conditions: 1, 5 and 10 mg/kg s.c. 1 h prior to acquisition, any dose tested
# Excerpt: The compound administered in the present experiment was 1-[2-(2,4-dimethylphenylsulfanyl)phenyl]piperazine HBr salt.
# We have studied the effect of the compound on acquisition, consolidation and recall of contextual fear conditioning in rats. In the fear conditioning paradigm animals learn to associate a neutral environment (context, the training chamber, CS) with an aversive experience (an electrical foot-shock, US). During re-exposure to the training chamber, animals express a freezing behaviour, which is taken as a direct measure of the fear-related memory [Pavlov J. Biol. Sci., 15, 177-182, 1980]. […] Neurosci., 106, 274-285, 1992].
# Adult male Sprague-Dawley rats (weighing 250-300 g at time of training) from Charles River Laboratories, housed two per cage under a 12 h light/dark cycle, were used. Food and water were available ad libitum. […]
# During the acquisition animals were allowed to freely explore the novel environment for a 1 min habituation period, which co-terminated with one inescapable foot-shock (unconditioned stimulus, US) through the electrifiable grid floor. […] Freezing behaviour was scored during the first 58 s (pre-shock acquisition; experimenter blinded to groups) to determine baseline-freezing responses to the context. […] Freezing behaviour was scored during the whole test period with the experimenter blinded to groups and presented as percent of total test period.
# [3] = system: rat; assay: Chronic constriction nerve injury model; type: in vivo; conditions: 7.9 mg/kg s.c., 60 minutes, FIG. 26
# Method: This model of neuropathic pain involves the application of four loose ligations around one sciatic nerve of the rat over a period of time to develop both hyperalgesia and allodynia. The effect of test compounds in this test is measured as the time to withdraw the paw upon a thermal stimuli.
# [4] = system: extra-cellular levels of ACh; assay: Extracellular acetylcholine levels in brain of freely moving rats (microdialysis); type: in vivo, rat; conditions: 2.5-10 mg/kg s.c.
# Method: The animals were administered 1-[2-(2,4-dimethylphenylsulfanyl)phenyl]piparazine, HBr salt.
# Male Sprague-Dawley rats, initially weighing 275-300 g, were used. The animals were housed under a 12-hr light/dark cycle under controlled conditions for regular in-door temperature (21±2° C.) and humidity (55±5%) with food and tap water available ad libitum.
# Rats were anaesthetised with hypnorm/dormicum (2 ml/kg) and intracerebral guide cannulas (CMA/12) were stereotaxically implanted into the brain, aiming at positioning the dialysis probe tip in the ventral hippocampus (co-ordinates: 5.6 mm posterior to bregma, lateral −5.0 mm, 7.0 mm ventral to dura) or in the prefrontal cortex (co-ordinates: 3.2 mm anterior to bregma; lateral, 0.8 mm; 4.0 mm ventral to dura). […] The body temperature of the animals was monitored by rectal probe and maintained at 37° C. […]
# The compound dissolved in 10% HPbetaCD and injected subcutaneously (2.5-10 mg/kg). Doses are expressed as mg salt/kg body weight. […]
# Concentration of acetylcholine (ACh) in the dialysates was analysed by means of HPLC with electrochemical detection using a mobile phase consisting of 100 mM disodium hydrogenphosphate, 2.0 mM octane sulfonic acid, 0.5 mM tetramethyl-ammonium chloride and 0.005% MB (ESA), pH 8.0. […] The latter was detected electrochemical by using a platinum electrode (Analytical cell: ESA, model 5040). […]
# [5] = Hygroscopicity (water absorption at relative humidity); type: physicochemical
# Excerpt: Some compounds are hygroscopic, i.e. the absorb water when exposed to humidity. Hygroscopicity is generally regarded as an undesired property for compounds that are to be presented in a pharmaceutical formulation, in particular in a dry formulation, such as tablets. In one embodiment, the invention provides the use of crystals with low hygroscopicity. For oral dosage forms using crystalline active ingredients it is also beneficial if said crystals are well-defined. In the present context, the term “well-defined” in particular means that the stoichiometry is well-defined, i.e. that the ratio between the ions forming the salt is the ratio between small integers, such as 1:1, 1:2, 2:1, 1:1:1, etc. In one embodiment, the compound I forms well-defined crystals.
# [6] = Solubility in water
compound,measurement,setting,value
"Cc1ccc(Sc2ccccc2N2CCNCC2)c(C)c1.O=C(O)C(O)C(O)C(=O)O [L-(+)-tartrate, 1-[2-(2,4-Dimethylphenylsulfanyl)-phenyl]piperazine (+)-tartaric acid]",solubility,[1],~400 µg/mL
"Br.Cc1ccc(Sc2ccccc2N2CCNCC2)c(C)c1 [alpha form of the hydrobromide, 1-[2-(2,4-Dimethylphenylsulfanyl)-phenyl]piperazine hydrobromide]",solubility,[1],2000 µg/mL
"Br.Cc1ccc(Sc2ccccc2N2CCNCC2)c(C)c1 [compound I (HBr salt), 1-[2-(2,4-dimethylphenylsulfanyl)phenyl]piperazine HBr salt]",baseline freezing behaviour before the foot shock,[2],does not affect
same,withdrawal latency following a thermal stimuli,[3],significant and dose-dependant withdrawal latency
same,extra-cellular levels of ACh in prefrontal cortex,[4]; FIG. 19a,significantly increased
same,extra-cellular levels of ACh in ventral hippocampus,[4]; FIG. 19b,significantly increased
"Cc1ccc(Sc2ccccc2N2CCNCC2)c(C)c1 [crystalline base, 1-[2-(2,4-Dimethylphenylsulfanyl)-phenyl]piperazine]",hygroscopicity (in words),[5],not hygroscopic
"Cc1ccc(Sc2ccccc2N2CCNCC2)c(C)c1 [fumarate, 1-[2-(2,4-Dimethylphenylsulfanyl)-phenyl]piperazine]",solubility in water,[6],400 µg/mL
"Br.Cc1ccc(Sc2ccccc2N2CCNCC2)c(C)c1 [gamma form of the hydrobromide, 1-[2-(2,4-Dimethylphenylsulfanyl)-phenyl]piperazine hydrobromide]",water absorbed at 30% RH,[5]; 30% RH at room temperature,about 2%
"Br.Cc1ccc(Sc2ccccc2N2CCNCC2)c(C)c1 [hemi hydrate of the hydrobromide, 1-[2-(2,4-Dimethylphenylsulfanyl)-phenyl]piperazine hydrobromide]",water content,[5]; room temperature and 95% RH,about 3.7%
"Cc1ccc(Sc2ccccc2N2CCNCC2)c(C)c1.Cl [hydrochloride monohydrate, 1-[2-(2,4-Dimethylphenylsulfanyl)-phenyl]piperazine HCl]",solubility in water,[6]; HCl,about 2 mg/ml
same,hygroscopicity (in words),[5],does not absorb further amount of water
"Cc1ccc(Sc2ccccc2N2CCNCC2)c(C)c1.Cl [hydrochloride, 1-[2-(2,4-Dimethylphenylsulfanyl)-phenyl]piperazine hydrochloride]",solubility,[1],3000 µg/mL
"Cc1ccc(Sc2ccccc2N2CCNCC2)c(C)c1.O=C(O)/C=C\C(=O)O [maleate, 1-[2-(2,4-Dimethylphenylsulfanyl)-phenyl]piperazine Maleate]",solubility,[1],~1000 µg/mL
"CS(=O)(=O)O.Cc1ccc(Sc2ccccc2N2CCNCC2)c(C)c1 [mesylate, 1-[2-(2,4-Dimethylphenylsulfanyl)-phenyl]piperazine mesylate]",solubility,[1],> 45000 µg/mL
"Cc1ccc(Sc2ccccc2N2CCNCC2)c(C)c1.O=[N+]([O-])O [nitrate, 1-[2-(2,4-Dimethylphenylsulfanyl)-phenyl]piperazine nitrate]",solubility,[1],~800 µg/mL
"Cc1ccc(Sc2ccccc2N2CCNCC2)c(C)c1.O=P(O)(O)O [phosphate, 1-[2-(2,4-Dimethylphenylsulfanyl)-phenyl]piperazine phosphate]",solubility,[1],~1000 µg/mL
"Cc1ccc(Sc2ccccc2N2CCNCC2)c(C)c1.O=S(=O)(O)O [sulphate, 1-[2-(2,4-Dimethylphenylsulfanyl)-phenyl]piperazine sulphate]",solubility,[1],~100 µg/mL
